# Measurements reported in patent US12474342B2, “Methods for treating cancer and the use of biomarkers as a predictor of clinical sensitivity to therapies” (CELGENE CORPORATION, priority 2016, dated 2025).
# pIC50: −log10 of the molar value.
# How the values were obtained:
# [1] = target: T1, GSPT1 (Homo sapiens, UniProt P15170+Q96SW2); experiment: GSPT1 protein reduction, western analysis, HNT-34; format: cell-based; parameters: reduction in GSPT1 protein level was evaluated in human normal PBMCs; endogenous in cells; host or cells: primary PBMCs from normal donors (ID 4328, 4379) and AML patients (ID 11SH, 09P6); details: HNT-34, 10 nM Compound D
# Method: The time course of the reduction in GSPT1 by Compound D also was studied for up to 48 hours. The progressive degradation of GSPT1 over the course of 1 to 20 hours was evident in the presence of all concentrations of Compound D studied from 3 to 300 nM in HNT-34, HL-60, and ML-2 cells, with little GSPT1 remaining by 20 hours at 100 or 300 nM Compound D in HNT-34 or HL-60 cells (FIG. 34 and FIG. 35C). Time-dependent reduction in GSPT1 was also observed in KG-1 and OCI-AML2 cells at 3 to 1000 nM Compound D, with little GSPT1 remaining in KG-1 cells at 100 to 300 nM at 24 hours or in OCI-AML2 cells at 300 and 1000 nM at 24 hours (FIG. 35D). Loss of GSPT1 occurred more slowly in Kasumi-1, AML-193, and […] cells. […] A positive association (r^2=0.50; […]
# [2] = system: KASUMI-1 cells; experiment: Anti-proliferation 72-hour CTG assay, KASUMI-1; format: cell-based; details: Homo sapiens; KASUMI-1, 72-hour CTG assay; read-out: IC50 of the anti-proliferative effect
# Method: (§1) A plethora of AML cell lines were treated with serial dilutions of Compound D. IC50 value of the anti-proliferation effect of Compound D (as determined in 72-hour CTG assays) in each cell line is summarized in Table 1.
# [3] = target: T1, GSPT1; experiment: GSPT1 protein reduction, western analysis, OCI-AML2; format: cell-based; parameters: reduction in GSPT1 protein level was evaluated in human normal PBMCs; endogenous in cells; host or cells: primary PBMCs from normal donors (ID 4328, 4379) and AML patients (ID 11SH, 09P6); details: for degradation of GSPT1: 100 nM
# Method: Thus, Compound D-induced GSPT1 degradation is also CRBN-dependent.
# The reduction in the level of GSPT1 protein was concentration-dependent over the range of 3 to 1000 nM in eight of the nine AML cell lines and over the range of 300 to 1000 nM in one relatively insensitive AML cell line. The time course of the reduction in GSPT1 by Compound D also was studied for up to 48 hours. The progressive degradation of GSPT1 over the course of 1 to 20 hours was evident in the presence of all concentrations of Compound D studied from 3 to 300 nM in HNT-34, HL-60, and ML-2 cells, with little GSPT1 remaining by 20 hours at 100 or 300 nM Compound D in HNT-34 or HL-60 cells (FIG. 34 and FIG. 35C). Time-dependent reduction in GSPT1 was also observed in KG-1 and OCI-AML2 cells at 3 to 1000 nM Compound D, with little GSPT1 remaining in KG-1 cells at 100 to 300 nM at 24 hours or in OCI-AML2 cells at 300 and 1000 nM at 24 hours (FIG. 35D). Loss of GSPT1 occurred more slowly in Kasumi-1, AML-193, and F36-P cells.
# Compound D-mediated GSPT1 reduction at 8 hours was compared to induction of caspase 3/7 activation (apoptosis) at 12, 24, and 48 hour time points in these nine AML cell lines. […] A positive association (r^2=0.50; R=0.71; p value=4.86E-002) was observed between the level of GSPT1 reduction and apoptosis induction in the AML cell panel (FIG. 36), with >90% GSPT1 reduction correlating with induction of apoptosis.
# [4] = system: ATF3; experiment: ATF3 mRNA, quantitative PCR, KG-1; format: cell-based, human; details: KG-1, 100 nM Compound D or greater
# Method: Compound D regulates UPR stress RNAs, ATF3 and CHOP, and nonsense-mediated decay (NMD) RNAs, SRSF3 and SRSF6, in KG-1 cells in both dose- and time-dependent manners. KG-1 cells were plated in 10 cm^2 dishes and incubated overnight. The following day, KG-1 cells were treated with a 6-point dose response (0, 3, 10, 30, 100, 300 nM) of Compound D and incubated for 2, 4, 8, and 20 hours. Cells were removed from dishes and cell pellets were prepared for RNA isolation (Qiagen RNA isolation kit). Total RNA was quantitated using NanoDrop spectrophotometer and cDNA was reversely transcribed using 1 μg total RNA. Quantitative PCR was performed in replicates for each sample using primer sets for ATF3, CHOP, and both NMD and normal transcripts of SRSF3 and SRSF6. Data was doubly normalized to the 18S housekeeping gene and 2 hour DMSO control. Normalized RNA expression (y-axis) versus drug concentration in nM (x-axis) for each time point was plotted. SRSF3-1 NMD and SRSF6-1 NMD depict amplification of NMD transcript for SRSF3 and SRSF6, respectively. SRSF3-3 Normal and SRSF6-3 Normal depict amplification of normal transcript for SRSF3 and SRSF6 genes, respectively. […] FIGS. 29A-29F show effects of Compound D treatment on UPR and NMD pathways in KG-1 cells. […] Additionally, 100 nM Compound D or greater induced the mRNA levels of ATF3 and DDIT3 (CHOP) approximately 100-fold and 10-fold, respectively. […]
# [5] = system: OCI-AML3 cells; experiment: Anti-proliferation CTG assay, OCI-AML3; format: cell-based, human
# Method: as §1
# The effect of depletion of GSPT1 on the anti-proliferative effect of compound Compound D and Compound E was also determined in human acute myelogenous leukemia cell lines AML and KG1. Cells were infected with lentiviral vectors expressing control shRNA, shGSPT1-1 or shGSPT1-3 for 7 days and then treated with DMSO, Compound D or Compound E in a titration from 0.0001 μM to 1 μM. Two days after treatment, cell proliferation was measured by CellTiter-Glo cell viability. […] Both shGSPT1-1 and shGSPT1-3 reduced the expression of GSPT1, eRF1, and slightly of CRBN.
# [6] = system: ATF4; experiment: ATF4 protein induction, western blot, HNT-34; format: cell-based, human; details: HNT-34, 10 nM Compound D
# Method: The time course of GSPT1 degradation was monitored by western blot analysis of HNT-34 AML cells and normal PBMCs (FIGS. 32A-32D) following incubation with Compound D (1, 10, and 100 nM).
# T1 sequence (P15170 1-637 isoform P15170-3): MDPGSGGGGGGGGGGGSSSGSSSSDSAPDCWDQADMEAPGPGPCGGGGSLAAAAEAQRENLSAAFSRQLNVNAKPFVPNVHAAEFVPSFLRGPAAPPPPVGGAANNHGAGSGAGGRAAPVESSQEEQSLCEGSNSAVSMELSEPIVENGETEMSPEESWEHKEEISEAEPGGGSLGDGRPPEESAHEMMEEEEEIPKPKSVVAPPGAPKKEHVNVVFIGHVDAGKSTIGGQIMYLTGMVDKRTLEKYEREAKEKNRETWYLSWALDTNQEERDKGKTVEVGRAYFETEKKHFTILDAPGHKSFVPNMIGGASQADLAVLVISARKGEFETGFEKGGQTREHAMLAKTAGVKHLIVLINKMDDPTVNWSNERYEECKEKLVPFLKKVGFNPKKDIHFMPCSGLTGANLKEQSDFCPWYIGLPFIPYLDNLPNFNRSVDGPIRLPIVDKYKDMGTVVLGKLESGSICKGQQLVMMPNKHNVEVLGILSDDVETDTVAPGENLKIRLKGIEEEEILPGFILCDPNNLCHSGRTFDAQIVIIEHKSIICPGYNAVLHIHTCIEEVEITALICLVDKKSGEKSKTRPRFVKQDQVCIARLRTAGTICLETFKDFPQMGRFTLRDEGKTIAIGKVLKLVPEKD
# T1 sequence (Q96SW2 whole entry): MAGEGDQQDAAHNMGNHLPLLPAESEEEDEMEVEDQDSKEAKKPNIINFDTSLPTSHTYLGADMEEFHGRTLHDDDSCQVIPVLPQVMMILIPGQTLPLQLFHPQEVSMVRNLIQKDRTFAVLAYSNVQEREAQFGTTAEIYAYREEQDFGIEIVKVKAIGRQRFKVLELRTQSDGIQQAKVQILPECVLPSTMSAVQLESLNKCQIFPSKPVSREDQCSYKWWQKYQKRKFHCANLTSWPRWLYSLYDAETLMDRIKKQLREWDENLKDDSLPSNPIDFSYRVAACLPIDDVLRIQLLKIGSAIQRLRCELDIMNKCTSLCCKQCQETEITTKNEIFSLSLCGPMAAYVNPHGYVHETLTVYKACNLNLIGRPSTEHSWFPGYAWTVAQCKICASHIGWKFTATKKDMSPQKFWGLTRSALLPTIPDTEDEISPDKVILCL
# T1 sequence (Q16531 whole entry partner): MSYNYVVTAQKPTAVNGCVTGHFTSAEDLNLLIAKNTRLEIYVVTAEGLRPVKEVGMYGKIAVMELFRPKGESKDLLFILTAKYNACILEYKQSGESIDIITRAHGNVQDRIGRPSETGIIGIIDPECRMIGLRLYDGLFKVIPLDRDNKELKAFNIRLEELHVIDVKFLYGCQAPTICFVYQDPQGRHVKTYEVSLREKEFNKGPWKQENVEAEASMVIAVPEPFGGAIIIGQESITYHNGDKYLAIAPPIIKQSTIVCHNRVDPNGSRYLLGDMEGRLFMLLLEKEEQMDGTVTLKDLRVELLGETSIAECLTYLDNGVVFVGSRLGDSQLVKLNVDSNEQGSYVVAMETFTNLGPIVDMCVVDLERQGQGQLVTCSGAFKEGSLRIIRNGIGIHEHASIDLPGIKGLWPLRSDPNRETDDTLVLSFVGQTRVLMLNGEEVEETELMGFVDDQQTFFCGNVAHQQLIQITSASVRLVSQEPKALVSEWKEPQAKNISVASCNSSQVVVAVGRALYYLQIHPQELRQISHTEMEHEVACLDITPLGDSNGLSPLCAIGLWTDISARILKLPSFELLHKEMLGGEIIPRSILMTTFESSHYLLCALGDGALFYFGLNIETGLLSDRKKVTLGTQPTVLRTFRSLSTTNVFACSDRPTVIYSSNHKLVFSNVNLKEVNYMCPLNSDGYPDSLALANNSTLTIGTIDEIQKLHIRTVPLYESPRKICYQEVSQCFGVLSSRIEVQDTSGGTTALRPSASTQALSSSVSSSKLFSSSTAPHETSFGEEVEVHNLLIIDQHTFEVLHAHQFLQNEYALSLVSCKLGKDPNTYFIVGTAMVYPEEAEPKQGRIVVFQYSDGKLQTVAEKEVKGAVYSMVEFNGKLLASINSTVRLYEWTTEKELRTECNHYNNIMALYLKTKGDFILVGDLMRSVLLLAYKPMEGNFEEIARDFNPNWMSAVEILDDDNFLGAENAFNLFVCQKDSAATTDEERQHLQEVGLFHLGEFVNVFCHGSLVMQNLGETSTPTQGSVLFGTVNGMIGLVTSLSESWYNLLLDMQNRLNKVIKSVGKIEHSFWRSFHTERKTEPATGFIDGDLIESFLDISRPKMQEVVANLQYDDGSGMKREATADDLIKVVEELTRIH
smiles,measurement,setting,value
"O=C1CCC(N2Cc3cc(CNC(=O)C(F)(F)c4ccc(Cl)cc4)ccc3C2=O)C(=O)N1 (stereo not shown) [Compound D, 2-(4-chlorophenyl)-N-((2-(2,6-dioxopiperidin-3-yl)-1-oxoisoindolin-5-yl)methyl)-2,2-difluoroacetamide]",time at which GSPT1 degradation was evident,[1],≤ 2 h
same,pIC50,[2],7.68
same,degradation of GSPT1,[3]; CRBN -/- OCI-AML2 cells,could not induce degradation
same,reduction of GSPT1 protein levels,"[3]; OC-AML2, 100 nM Compound D, 8 hours",greater than 800
same,Percent Reduction at 100 nM Compound D GSPTI (8 hr),"[3]; OCI-AML2, 100 nM, 8 hr",89%
same,degradation of GSPT1,[3]; parental OCI-AML2 cells,induced degradation
same,induction of ATF3 mRNA level,[4],approximately 100 fold
same,cell proliferation (CellTiter-Glo),"[5]; AML3 parental or control shRNA cells, 0.0001 μM to 1 μM, two days","exhibited anti-proliferative effect, particularly at high concentration"
same,pIC50,"[5]; Homo sapiens, OCI-AML-3, OCI-AML3, 72-hour CTG assay, read-out: IC50 of the anti-proliferative effect",5.47
same,time of induction of ATF4 protein,[6],8 h
